The subject of test [1] is E. coli Class A Tc^r (DI-299). In kind it is cell-based. The following applies: drug alone; for MLC: kills 99.9%.
Test [2] has as its system E. coli Class B Tc^r (DI-209). In kind it is cell-based. As to conditions: drug alone; for MLC: kills 99.9%.
The subject of test [3] is E. coli Tc^s (MI 308-226). In words: susceptibility testing MIC/MLC, drug alone. In kind it is cell-based. The following applies: for MLC: kills 99.9%.
Test [4] has as its system E. faecalis Tc^s (ATCC9790r). In words: susceptibility testing MIC/MLC, drug alone. Format: cell-based.
For test [5], the system named is E. faecalis (Class M). As to conditions: result in words.
Test [6] deals with E. faecalis Tc^r (L) ATCC9790r/Tell.). In words: susceptibility testing MIC/MLC, drug alone. In kind it is cell-based.
Test [7] concerns E. faecalis Tc^r(M) (ATCC09790r/TelM). Format: cell-based. The following applies: drug alone; for MLC: kills 99.9%.
The test system of test [8] is S. aureus Tc^r (RN4250). Format: cell-based.
The target in test [9] is T1, efflux protein (Escherichia coli, UniProt P02980).
T1 sequence (P02980 1-401): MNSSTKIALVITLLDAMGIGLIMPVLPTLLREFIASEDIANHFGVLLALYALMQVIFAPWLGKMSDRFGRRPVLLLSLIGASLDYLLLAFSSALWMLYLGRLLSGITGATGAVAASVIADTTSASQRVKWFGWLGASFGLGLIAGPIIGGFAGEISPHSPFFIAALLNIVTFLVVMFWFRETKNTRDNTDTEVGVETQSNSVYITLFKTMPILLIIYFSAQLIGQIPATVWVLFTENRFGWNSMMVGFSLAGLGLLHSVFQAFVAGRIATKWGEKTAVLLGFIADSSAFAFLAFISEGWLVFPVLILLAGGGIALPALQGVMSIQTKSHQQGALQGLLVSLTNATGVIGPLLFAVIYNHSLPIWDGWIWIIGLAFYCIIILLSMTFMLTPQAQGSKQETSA
The experiment in a line: everted membrane vesicle assay, blocking activity of 13-S-derivatives. Format: biochemical.

In test [10] the test system is tetracycline resistant S. aureus. The following applies: in combination with tetracycline.
For test [11], the system named is S. aureus 450. The experiment in a line: susceptibility of tetracycline susceptible strains (MIC), C5 esters. As to conditions: S. aureus 450, susceptible strain, drug alone. Format: cell-based.
For test [12], the system named is E. faecalis ATCC 9790. Described as above. The following applies: E. faecalis ATCC 9790, susceptible strain, drug alone. In kind it is cell-based.
The test system of test [13] is E. coli ML308. Described as above. In kind it is cell-based. The following applies: E. coli ML308, susceptible strain, drug alone.
Test [14] relates to tetracycline resistant (Class A) E. coli (strain D1-299). As to conditions: in combination with tetracycline.
Where [15] appears, read: E. faecalis bearing the Tet L determinant.
Where [16] appears, read: Tc^r (L) ATCC9790r/Tell.), drug alone.
Where [17] appears, read: Tc^r (L) ATCC9790r/Tell.), drug alone, kills 99.9%.
The mark [18] stands for this setting: Tc^r(RN4250), drug alone, kills 99.9%.

Converted amounts (≈) assume the structure as drawn. Like-named read-outs stand apart in the source and are kept apart here.

One may read the Ki as a measure of affinity in units of concentration, obtained from inhibition or displacement. Lower therefore signals a stronger hold on the target. On to `CN(C)C1C(O)=C(C(N)=O)C(=O)C2(O)C(O)=C3C(=O)c4c(O)cccc4C(CSCc4ccccc4)C3C(O)C12` (stereo not drawn) [Benzyl, 6-deoxy-13-(benzylmercapto) tetracycline], for which the MIC is 45 ± 20 µg in test [1]; 30 ± 0.25 µg in test [2]; 16 ± 5 µg in [3] (Tc^s (MI 308-226), drug alone); 0.5 ± 0.25 µg in [4]; 0.75 ± 0.25 µg in [6] (setting [16]); 3.5 ± 1 µg in test [7]. The MIC in [8] (Tc^r(RN4250), drug alone) worked out at 1 ± 0.25 µg. Besides, the MLC is 150 ± 50 µg in test [1]; 90 ± 10 µg in [2]; 25 ± 6 µg in [3] (Tc^s (MI 308-226), drug alone); 8 ± 2 µg/mL (≈ 14.1 µM) in test [6] (setting [15]); 8 ± 2 µg in test [6] (setting [17]); 18 ± 2 µg in test [7]. For the same compound, the MLC in test [8] (setting [18]) worked out at 10 ± 4 µg. Further, the “synergistic activity with tetracycline” value in test [5] is “little, if any synergistic activity”. Besides, the affinity in test [9] corresponds to a Ki of 1.59 µM. The “combined dose of the two drugs to achieve MLC” value (“combined dose of the two drugs” for short) in [10] is ≤ 6 µg/mL.

For the compound `CCCSCC1c2cccc(O)c2C(=O)C2=C(O)C3(O)C(=O)C(C(N)=O)=C(O)C(N(C)C)C3C(OC(=O)CC)C21` (stereo not drawn) [Cmpd 8, 13-propylthio-5-proprionate-6-deoxy-tetracycline], the MIC entry was “.3 µg/mL” in test [11], 2.5 µg/mL (≈ 4.35 µM) in [12] and 20 µg/mL (≈ 34.8 µM) in [13].

With `CN(C)C1C(O)=C(C(N)=O)C(=O)C2(O)C(O)=C3C(=O)c4c(O)cccc4C(CSC4CCCCC4)C3C(O)C12` (stereo not drawn) [Cyclohexyl], the MIC was 100 ± 0.26 µg in test [1]; 60 ± 10 µg in test [3] (Tc^s (MI 308-226), drug alone); 1.25 ± 0.25 µg in test [4]; 1.5 ± 0.5 µg in test [6] (setting [16]); 2.5 ± 0.5 µg in test [7]; 1.5 ± 0.5 µg in test [8] (Tc^r(RN4250), drug alone). For the same compound, the MLC in test [1] is >200 µg; in [3] (Tc^s (MI 308-226), drug alone), 120 µg; in test [6] (setting [15]), 8 ± 2 µg/mL (≈ 14.3 µM); in test [6] (setting [17]) it was 8 ± 2 µg; in [7], 10 ± 0.25 µg; in test [8] (setting [18]), 10 ± 4 µg. In test [14], the “concentrations of analogue and tetracycline that inhibited growth” value was ≤ 5 μg/ml. Further, the “synergistic activity with tetracycline” value in test [5] is “little, if any synergistic activity”. This compound showed a Ki in test [9] of 0.716 µM. The “combined dose of the two drugs” value in [10] is ≤ 6 µg/mL.

Regarding `CN(C)C1C(O)=C(C(N)=O)C(=O)C2(O)C(O)=C3C(=O)c4c(O)cccc4C(CSC4CCCC4)C3C(O)C12` (stereo not drawn) [Cyclopentyl, 13-cyclopentylthio-5-hydroxy-6-α-deoxy-tetracycline], the MIC in [1] is 40 ± 0.25 µg; in test [2] it was 80 ± 40 µg; in [3] (Tc^s (MI 308-226), drug alone), 20 µg; in test [4], 1 ± 0.25 µg; in [6] (setting [16]), 1 ± 0.5 µg; in test [7], 3 ± 1 µg. Besides, the MIC in test [8] (Tc^r(RN4250), drug alone) was determined as 2 ± 0.25 µg. Besides, the MLC in test [1] was 80 µg; in test [2] it was 100 ± 60 µg; in test [3] (Tc^s (MI 308-226), drug alone), 60 µg; in test [6] (setting [17]), 18 ± 2 µg; in test [7], >16 µg; in test [8] (setting [18]), 6 ± 2 µg. For the same compound, in test [8] (resistant S. aureus), the MLC worked out at 6 ± 2 µg/mL (≈ 11 µM). Also, the “concentrations of analogue and tetracycline that inhibited growth” value in test [14] was ≤ 5 μg/ml. In addition, the “synergistic activity with tetracycline” value in [5] is given as “little, if any synergistic activity”. The same compound had a Ki in test [9] of 0.367 µM. The “combined dose of the two drugs” value in test [10] was ≤ 6 µg/mL.

For `CCSCC1c2cccc(O)c2C(=O)C2=C(O)C3(O)C(=O)C(C(N)=O)=C(O)C(N(C)C)C3CC21` (stereo not drawn) [Ethyl, 6-deoxy-13-(ethylmercapto) tetracycline], the MIC in test [1] turned out to be 14 ± 4 µg; in [2] it was 36 ± 16 µg; in [3] (Tc^s (MI 308-226), drug alone), 5 ± 0.25 µg; in [3] (susceptible E. coli) it was 5 µg/mL (≈ 10.2 µM); in test [4] it was 1 ± 0.5 µg; in test [6] (setting [16]) it was 4 ± 1 µg. Further, the MIC in [7] came to 25 ± 5 µg. The MLC in [1] is 45 ± 5 µg; in test [2], 50 ± 10 µg; in test [3] (Tc^s (MI 308-226), drug alone), 50 µg. In addition, the “concentrations of analogue and tetracycline that inhibited growth” value in test [14] is on record as ≤ 5 μg/ml.

`CN(C)c1ccc(O)c2c1C[C@H]1C[C@H]3[C@H](N(C)C)C(=O)C(C(N)=O)=C(O)[C@@]3(O)C(=O)C1=C2O` [Minocycline, reference compound]: the MIC in test [1] is <4 µg; in test [2], 6 ± 2 µg; in [3] (Tc^s (MI 308-226), drug alone), <4 µg; in test [4], <0.25 µg; in test [6] (setting [16]), <0.25 µg; in test [7], 10 µg. For the same compound, the MLC in test [1] is 20 µg; in [2], 30 ± 10 µg; in test [3] (Tc^s (MI 308-226), drug alone) it was <4 µg.

For `CN(C)C1C(O)=C(C(N)=O)C(=O)C2(O)C(O)=C3C(=O)c4c(O)cccc4C(C)(O)C3CC12` (stereo not drawn) [Tetracycline, 4-(Dimethylamino)-1,4,4a,5,5a,6-11,12a-octahydro-3,6,10,12,12a-pentahydroxy-6-methyl-1-11-dioxo-2-naphthacenecarboxamide, reference compound], the MIC in test [1] was 150 ± 0.25 µg; in [2], >200 µg; in test [3] (Tc^s (MI 308-226), drug alone), 0.6 ± 0.26 µg; in test [4], 0.25 µg; in test [6] (setting [16]), 90 ± 10 µg; in [7] it was 100 µg. The MLC was 200 µg in test [1]; >200 µg in [2]; 40 ± 0.26 µg in [3] (Tc^s (MI 308-226), drug alone). In test [9] (blocking activity against the efflux protein, everted membrane vesicle assay), the Ki was 9 to 18 µM.

Source of the values: US7732429B2 (Trustees of Tufts College, priority 1994, dated 2010).
